Paper PMC5428354, “Screening of a natural compound library identifies emodin, a natural compound from Rheum palmatum Linn that inhibits DPP4” (PeerJ, 2017)
Where two headings read alike, the source gives them in different places.

Target: DPP4 (Homo sapiens, UniProt P27487)
Assay: DPP4 activity assay (DPP4 inhibitor screening assay kit, Cayman);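 note: fluorescence read at excitation 360 nm and emission 460 nm after the enzyme reaction ran 30 min at 37 °C in a 96-well plate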
Assay type: biochemical
Parameters: purchased Cayman Chemical, Ann Arbor, MI, USA
Settings: 10 µM, control mean 100.0; for remaining activity at 10 µM: 0.5 h
[1] = Figure 1A raw data, read-out: DPP4 activity in library screen, Exp 1
[2] = Figure 1A raw data, read-out: DPP4 activity in library screen, Exp 2
[3] = Figure 1A raw data, read-out: DPP4 activity in library screen, Exp 3
[4] = mean of Exp 1-3, read-out: DPP4 activity in library screen, Mean

DPP4, sequence (P27487 whole entry): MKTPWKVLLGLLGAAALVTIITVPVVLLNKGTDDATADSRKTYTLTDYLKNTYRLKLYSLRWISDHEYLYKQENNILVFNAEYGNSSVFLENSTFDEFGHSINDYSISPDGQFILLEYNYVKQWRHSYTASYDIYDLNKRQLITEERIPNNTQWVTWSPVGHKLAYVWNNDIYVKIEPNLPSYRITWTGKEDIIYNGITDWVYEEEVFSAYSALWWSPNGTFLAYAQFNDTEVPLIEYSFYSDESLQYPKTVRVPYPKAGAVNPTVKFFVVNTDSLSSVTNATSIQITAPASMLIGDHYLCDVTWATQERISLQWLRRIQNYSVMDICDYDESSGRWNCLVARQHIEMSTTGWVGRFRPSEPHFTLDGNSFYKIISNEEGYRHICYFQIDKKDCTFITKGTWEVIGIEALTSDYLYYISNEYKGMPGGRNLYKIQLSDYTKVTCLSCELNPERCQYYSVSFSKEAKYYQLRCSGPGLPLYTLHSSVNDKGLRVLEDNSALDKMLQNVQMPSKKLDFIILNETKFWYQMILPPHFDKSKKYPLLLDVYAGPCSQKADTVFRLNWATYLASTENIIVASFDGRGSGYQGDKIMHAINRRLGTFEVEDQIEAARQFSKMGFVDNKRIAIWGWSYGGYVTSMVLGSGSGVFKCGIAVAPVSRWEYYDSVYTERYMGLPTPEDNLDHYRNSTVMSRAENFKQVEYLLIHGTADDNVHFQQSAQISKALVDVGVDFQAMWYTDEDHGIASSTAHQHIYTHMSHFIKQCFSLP

Compound	remaining activity at 10 µM [1]	remaining activity at 10 µM [2]	remaining activity at 10 µM [3]	remaining activity at 10 µM [4]	DPP4 activity in library screen, Exp 1 (Figure 1A raw data)	DPP4 activity in library screen, Exp 2 (Figure 1A raw data)	DPP4 activity in library screen, Exp 3 (Figure 1A raw data)	DPP4 activity in library screen, Mean (mean of Exp 1-3)
O=C(O)C1=C[C@@H](O)[C@@H](O)[C@H](O)C1 [Shikimic Acid]	87.3%	80.7%	84.9%	84.3%				
CC(C)(O)[C@H]1CC[C@@](C)([C@H]2[C@@H](O)C[C@@]3(C)[C@@H]4C[C@H](O[C@@H]5O[C@H](CO)[C@@H](O)[C@H](O)[C@H]5O)[C@H]5C(C)(C)[C@@H](O[C@@H]6OC[C@@H](O)[C@H](O)[C@H]6O)CC[C@@]56C[C@@]46CC[C@]23C)O1 [Astragaloside A]					103.8	108.8	101.9	104.8
C[C@H]1CC[C@]2(NC1)O[C@H]1C[C@H]3[C@@H]4CC[C@H]5C[C@@H](O[C@@H]6O[C@H](CO)[C@H](O[C@@H]7O[C@H](CO)[C@@H](O)[C@H](O[C@@H]8OC[C@@H](O)[C@H](O)[C@H]8O)[C@H]7O[C@@H]7O[C@H](CO)[C@@H](O)[C@H](O)[C@H]7O)[C@H](O)[C@H]6O)CC[C@]5(C)[C@H]4CC[C@]3(C)[C@H]1[C@@H]2C [Tomatine]	103%	91.8%	124%	106%				
COc1cc(/C=C/C(=O)O)ccc1O [Ferulic Acid]					97.5	83.7	98	93.1
Nc1nc2c(ncn2[C@@H]2O[C@H](CO)[C@@H](O)[C@H]2O)c(=O)[nH]1 [Guanosine]	104%	102%	90.2%	98.5%				
Cc1c(C(=O)NCCO)[n+]([O-])c2ccccc2[n+]1[O-] [Olaquindox]	77.8%	99.1%	116%	97.8%				
CC1=C(CC/C(C)=C/CCC2=CC[C@H](C3=CC(=O)O[C@H]3O)O[C@H]2O)C(C)(C)CCC1 [Manoalide]	102%	112%	125%	113%				
O.O=c1c(O)c(-c2ccc(O)cc2O)oc2cc(O)cc(O)c12 [Morin Hydrate]					79.5	73.7	79.4	77.5
Myricitrin					67	70.2	70.2	69.1
C[C@@H]1CC[C@@]2(OC1)O[C@H]1C[C@H]3[C@@H]4CC=C5C[C@@H](O[C@@H]6O[C@H](CO)[C@@H](O[C@@H]7O[C@@H](C)[C@H](O)[C@@H](O)[C@H]7O)[C@H](O)[C@H]6O[C@@H]6O[C@@H](C)[C@H](O)[C@@H](O)[C@H]6O)CC[C@]5(C)[C@H]4CC[C@]3(C)[C@H]1[C@@H]2C [Dioscin]	100%	100%	79.1%	93.1%				
CN1CC[C@]23c4ccccc4N[C@H]1[C@]21CCN(C)[C@H]3Nc2ccccc21 [Calycanthine]					98.1	98.8	109.2	102.0
O=C([O-])C(O)Cc1ccc(O)c(O)c1.[Na+] (centres unmarked) [Sodium Danshensu]					95.8	90.3	90.2	92.1
COc1ccc(CC2NCCc3cc(OC)c(OC)cc32)cc1OC.Cl (centres unmarked) [Tetrahydropapaverine HCl]					92.5	78	76.9	82.5
O=c1c(O)c(-c2cc(O)c(O)c(O)c2)oc2cc(O)cc(O)c12 [Myricetin]						57.5		57.9
O=c1c(O)c(-c2ccc(O)c(O)c2)oc2cc(O)cc(O)c12 [Quercetin Dihydrate]					59.9	57	57.1	58.0
O=C1CCC[C@@H]2[C@H]3CCC[N+]4([O-])CCC[C@@H](CN12)[C@@H]34 (some centres unmarked) [Oxymatrine]	106%	103%	83.7%	97.6%				
Methyl-Hesperidin					98.7	101.2	74.4	91.4
OCc1ccccc1O[C@@H]1O[C@H](CO)[C@@H](O)[C@H](O)[C@H]1O [Salicin]	72%	94.5%	87.9%	84.8%				
N[C@@H](Cc1c[nH]c2ccc(O)cc12)C(=O)O [5-hydroxytryptophan (5-HTP), 5-hydroxytryptophan]	93.3%	82.6%	90.6%	88.8%				
OC[C@@H](O)[C@@H](O)[C@H](O)[C@@H](O)CO [Sorbitol]	94.5%	91.5%	90.4%	92.1%				
C[C@H]1[C@H](C)CC[C@]2(C(=O)O)CC[C@]3(C)C(=CC[C@@H]4[C@@]5(C)CC[C@H](O)C(C)(C)[C@@H]5CC[C@]43C)[C@H]12 [Ursolic Acid]	85.1%	78.9%	89.1%	84.4%				
CN(C)CCc1ccc(O)cc1 [Hordenine]	90.7%	95.7%	95.6%	94%				
O=[N+]([O-])c1ncc[nH]1 [Azomycin]	74.2%	78.5%	76.2%	76.3%				

Continued, in another order:

remaining activity at 10 µM [1]	remaining activity at 10 µM [2]	remaining activity at 10 µM [3]	remaining activity at 10 µM [4]	Compound	DPP4 activity in library screen, Exp 1 (Figure 1A raw data)	DPP4 activity in library screen, Exp 2 (Figure 1A raw data)	DPP4 activity in library screen, Exp 3 (Figure 1A raw data)	DPP4 activity in library screen, Mean (mean of Exp 1-3)
66.8%	69%	74.6%	70.1%	COc1ccc(-c2cc(=O)c3c(O)cc(O[C@@H]4O[C@H](CO[C@@H]5O[C@@H](C)[C@H](O)[C@@H](O)[C@H]5O)[C@@H](O)[C@H](O)[C@H]4O)cc3o2)cc1O [Diosmin]				
61.4%	68.3%	70%	66.6%	O=c1cc(-c2ccc(O)c(O)c2)oc2cc(O)cc(O)c12 [Luteolin]				
99.9%	98%	99.8%	99.2%	COc1ccc2cc1Oc1ccc(cc1)C[C@H]1c3cc(c(OC)cc3CCN1C)Oc1c(OC)c(OC)cc3c1[C@H](C2)N(C)CC3 [Tetrandrine]				
91.5%	70.4%	71.7%	77.9%	O=C1c2c(O)cccc2C([C@@H]2O[C@H](CO)[C@@H](O)[C@H](O)[C@H]2O)c2cc(CO)cc(O)c21 (some centres unmarked) [Aloin]				
97.5%	98.7%	78.2%	91.5%	CCCC[N+]1(C)[C@@H]2C[C@@H](OC(=O)[C@H](CO)c3ccccc3)C[C@H]1[C@@H]1O[C@@H]12 (some centres unmarked) [Butylscopolamine bromide]				
105%	95.3%	51.5%	83.8%	COc1cc(C=O)ccc1O [Vanillin]				
81.7%	69.9%	67.6%	73.1%	COc1ccc(-c2cc(=O)c3c(OC)c(OC)c(OC)c(OC)c3o2)cc1OC [Nobiletin]				
		31.6%		O=C(/C=C/c1ccc(O)cc1)c1ccc(O)cc1O [Isoliquiritigenin]				
83.3%	65.3%	130%	93%	C[C@H]1[C@H](C)CC[C@]2(C(=O)O)CC[C@]3(C)C(=CC[C@@H]4[C@@]5(C)C[C@@H](O)[C@H](O)[C@@](C)(CO)[C@@H]5CC[C@]43C)[C@H]12 [Asiatic Acid]				
53.9%	58.9%	61.7%	58.2%	O=C1Nc2ccccc2/C1=C1/Nc2ccccc2C1=O [Indirubin]				
116%	82.6%	68.6%	89.2%	C[C@@H]1O[C@@H](O[C@H]2[C@H](Oc3cc(O)c4c(c3)O[C@H](c3ccc(O)cc3)CC4=O)O[C@H](CO)[C@@H](O)[C@@H]2O)[C@H](O)[C@H](O)[C@H]1O [Naringin]				
85.8%	99.7%	98%	94.5%	CC(C)Oc1ccc2c(=O)c(-c3ccccc3)coc2c1 [Ipriflavone (Osteofix), Ipriflavone]				
71.3%	81.8%	102%	84.9%	O=C(/C=C/c1ccc(O)c(O)c1)O[C@@H]1C[C@](O)(C(=O)O)C[C@@H](O)[C@H]1O [Chlorogenic Acid]				
101%	88.8%	72.1%	87.3%	O=C1c2c(O)cc(O)cc2O[C@H](c2cc(O)c(O)c(O)c2)[C@H]1O [Dihydromyricetin]				
